Converted amounts (≈) assume the structure as drawn.
Tests used:
[1] = target: Mitogen-activated protein kinase 14 (Homo sapiens, UniProt Q16539)
[2] = organism: Homo sapiens; assay: tissue or blood
[3] = cells; details: Homo sapiens
[4] = Area under plasma-time concentration curve when administered at 1 mg/kg dose; format: ADME, organism-based; parameters: dose 1 mg/kg; details: rat
[5] = organism: Mus musculus; assay: animal or person; format: functional
[6] = organism: Mus musculus; assay: animal or person; format: functional; remark: listed apart in the source
[7] = organism: Mus musculus; assay: animal or person; format: functional; remark: listed apart in the source
[8] = Solubility was determined; format: physicochemical
[9] = Protein binding was determined in human; format: ADME
[10] = Oral bioavailability at 3 mg/kg; format: ADME, organism-based; details: rat, in vivo, read-out: Bioavailabiility
[11] = Volume distribution after iv administration of 1 mg/kg; format: ADME, organism-based; parameters: dose 1 mg/kg, route intravenous; details: rat, in vivo, read-out: Distribution
[12] = Log D value at pH 7.4; format: physicochemical; details: buffer

Mitogen-activated protein kinase 14, sequence (Q16539 whole entry): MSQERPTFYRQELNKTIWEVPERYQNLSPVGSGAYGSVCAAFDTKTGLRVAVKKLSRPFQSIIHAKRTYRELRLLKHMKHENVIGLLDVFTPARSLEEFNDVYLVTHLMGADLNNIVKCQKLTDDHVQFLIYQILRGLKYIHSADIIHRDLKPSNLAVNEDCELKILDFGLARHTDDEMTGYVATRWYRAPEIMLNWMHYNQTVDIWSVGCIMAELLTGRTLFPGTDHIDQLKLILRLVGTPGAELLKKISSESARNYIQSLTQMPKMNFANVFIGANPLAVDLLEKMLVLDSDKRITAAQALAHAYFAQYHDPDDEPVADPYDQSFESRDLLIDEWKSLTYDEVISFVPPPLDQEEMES

Structure (SMILES)	IC50 [1] [nM]	IC50 [2] [nM]	IC50 [3] [nM]	AUC [4] [µM·h]	other results
Cc1ccc(NC(=O)c2cccc(N3CCOCC3)c2)cc1NC(=O)c1ccc(OCc2cccnc2)cc1	90	14700			
COc1ccc(C(=O)Nc2cc(NC(=O)c3cccc(N(C)C)c3)ccc2Cl)cc1OC	220		6400		
Cc1ccc(NC(=O)c2cccc(N3CCOCC3)c2)cc1NC(=O)c1ccc(OCc2cscn2)cc1				< 0.12	inhibition in vivo at 30 mg/kg [5]: 56%; inhibition in vivo at 3 mg/kg [6]: 28%; inhibition in vivo at 10 mg/kg [7]: 44%
COc1ccc(C(=O)Nc2cccc(NC(=O)c3cccc(N(C)C)c3)c2)cc1OC	> 20000				
Cc1ccc(NC(=O)c2cc(F)cc(N3CCOCC3)c2)cc1NC(=O)c1ccc(OCc2ccncc2)cc1	10	3400		< 0.02	inhibition in vivo at 30 mg/kg ([5]; dose 30 mg/kg): 40%; inhibition in vivo at 10 mg/kg ([7]; dose 10 mg/kg): 24%
COc1ccc(C(=O)Nc2cc(NC(=O)c3cccc(N(C)C)c3)ccc2C)cc1	180		> 50000		
Cc1ccc(NC(=O)c2ccnc(N3CCOCC3)c2)cc1NC(=O)c1ccc(OCc2ccccn2)cc1	10	2800			solubility [8]: < 1 µM; Binding [9]: 99.89%; bioavailability [10]: 46%; Vd [11]: 1.6 L/kg
COCCOc1ccc(C(=O)Nc2cc(NC(=O)c3cccc(N(C)C)c3)ccc2C)cc1	270		3400		
COc1ccc(C(=O)Nc2cc(NC(=O)c3cccc(N(C)C)c3)ccc2Br)cc1OC	340		9500		
Cc1ccc(NC(=O)c2cc(F)cc(N3CCOCC3)c2)cc1NC(=O)c1ccc(OCc2cscn2)cc1	10	2500		0.71	inhibition in vivo at 30 mg/kg [5]: 81%; inhibition in vivo at 10 mg/kg [7]: 37%
Cc1ccc(NC(=O)c2cc(F)cc(N3CCCC3)c2)cc1NC(=O)c1ccc(OCc2ccccn2)cc1				0.07	inhibition in vivo at 30 mg/kg [5]: 7%; inhibition in vivo at 10 mg/kg [7]: 3%
Cc1ccc(NC(=O)c2cccc(N3CCOCC3)c2)cc1NC(=O)c1ccc(OCc2ccccn2)cc1				1.38	inhibition in vivo at 30 mg/kg ([5]; dose 30 mg/kg): 59%
CCOCCOc1ccc(C(=O)Nc2cc(NC(=O)c3cccc(N(C)C)c3)ccc2C)cc1	310		9500		
CCOc1ccc(C(=O)Nc2cc(NC(=O)c3cccc(N(C)C)c3)ccc2C)cc1	60		7000		
Cc1ccc(NC(=O)c2cccc(N(C)C)c2)cc1NC(=O)c1ccc(O)cc1	180		> 50000		solubility [8]: 10 µM (≈ 3.89 µg/mL); Binding [9]: 99.7%; logD [12]: 2.7
Cc1ccc(NC(=O)c2cc(F)cc(N3CCOCC3)c2)cc1NC(=O)c1ccc(OCc2ccccn2)cc1	60	11200		0.13	inhibition in vivo at 30 mg/kg ([5]; dose 30 mg/kg): 43%
COc1cc(C(=O)Nc2cc(NC(=O)c3cccc(N(C)C)c3)ccc2C)cc(OC)c1OC	230		3900		
Cc1ccc(NC(=O)c2cccc(N3CCOCC3)c2)cc1NC(=O)c1ccc(OCc2ccncc2)cc1	20	3300		0.13	inhibition in vivo at 30 mg/kg ([5]; dose 30 mg/kg): 75%; inhibition in vivo at 3 mg/kg ([6]; dose 3 mg/kg): 14%; inhibition in vivo at 10 mg/kg ([7]; dose 10 mg/kg): 43%
COc1ccc(C(=O)Nc2ccc(C)c(NC(=O)c3cccc(N(C)C)c3)c2)cc1OC	> 20000				
COc1ccc(C(=O)N(C)c2cc(NC(=O)c3cccc(N(C)C)c3)ccc2C)cc1OC	> 20000				
COc1ccc(C(=O)Nc2cc(NC(=O)c3cccc(N(C)C)c3)ccc2C)c(OC)c1	100		> 50000		
CCOc1ccc(C(=O)Nc2cc(NC(=O)c3cccc(N(C)C)c3)ccc2C)cc1OCC	50		4500		
COc1ccc(C(=O)Nc2cc(NC(=O)c3cccc(N(C)C)c3)ccc2F)cc1OC	1900		22000		
Cc1nc(COc2ccc(C(=O)Nc3cc(NC(=O)c4cccc(N5CCOCC5)c4)ccc3C)cc2)cs1	20	14600		2.03	inhibition in vivo at 30 mg/kg ([5]; dose 30 mg/kg): 71%; inhibition in vivo at 3 mg/kg ([6]; dose 3 mg/kg): 33%; inhibition in vivo at 10 mg/kg ([7]; dose 10 mg/kg): 44%
Cc1ccc(NC(=O)c2cc(N3CCOCC3)cc(C(F)(F)F)c2)cc1NC(=O)c1ccc(OCc2ccccn2)cc1	20	10200		0.04	inhibition in vivo at 30 mg/kg ([5]; dose 30 mg/kg): 55%; inhibition in vivo at 10 mg/kg ([7]; dose 10 mg/kg): 4%
Cc1ccc(NC(=O)c2cccc(N3CCOCC3)c2)cc1NC(=O)c1ccc(OCc2ccccc2)cc1	30	40000			
COc1ccc(C(=O)Nc2cc(NC(=O)c3cccc(N(C)C)c3)ccc2C)cc1OC	180		6400		
Cc1nc(COc2ccc(C(=O)Nc3cc(NC(=O)c4cc(F)cc(N5CCOCC5)c4)ccc3C)cc2)cs1	90	2800		0.73	inhibition in vivo at 30 mg/kg ([5]; dose 30 mg/kg): 35%; inhibition in vivo at 3 mg/kg ([6]; dose 3 mg/kg): 0%; inhibition in vivo at 10 mg/kg ([7]; dose 10 mg/kg): 27%
C[S+]([O-])c1ccc(-c2nc(-c3ccc(F)cc3)c(-c3ccncc3)[nH]2)cc1 (centres undefined) [SB-203580]					inhibition in vivo at 30 mg/kg [5]: 50%; inhibition in vivo at 3 mg/kg [6]: 0%; inhibition in vivo at 10 mg/kg [7]: 47%
